# From patent publication US8283353B2, “Fused ring compound and use thereof” (Takeda Pharmaceutical Company Limited, priority 2009, dated 2012)
# Structures can show the parent of a compound that is named as a salt.
# Tests used:
# Male SHRs = experiment: Antihypertensive effect: mean blood pressure in male SHRs after oral administration; type: in vivo, rat; conditions: male SHR, dose 3 mg/kg, MBP measured during 24 hours
# Procedure: Male SHRs (28-40 weeks old, Japan SLC, Inc., Japan) were anesthetized with sodium pentobarbital (50 mg/kg, i.p.). The left femoral artery was cannulated with a polyethylene catheter filled with saline comprising heparin (200 U/mL). The catheter was exteriorized at the back of the neck and each SHR was individually housed in a cage and left two or four days to recover. The mean blood pressure (MBP) was obtained from the systemic blood pressure which was monitored from the femoral artery using a pressure transducer connected to a polygraph system (Nihon Kohden Corporation). The heart rate was measured from the blood pressure pulse intervals. The rats which had MBP over 150 mmHg were used for the experiment. When the blood pressure had stabilized, vehicle (0.5 w/v % methylcellulose) or compounds were orally administered. All compounds were suspended in 0.5 w/v % methylcellulose and orally administered at a volume of 2 mL/kg. The MBP was measured during 24 hours after the administration.
# human PPARγ = molecular target: T1, human PPARγ (Homo sapiens, UniProt P37231); experiment: PPARγ agonistic activity: luciferase reporter assay in PPARγ:RXRα:4ERPP/CHO-K1 cells; type: cell-based; conditions: CHO-K1, test compound 10^−6 M; luciferase activity of control compound X (1 μM) = 100%, non-administration group = 0%
# T1 construct: expressed in transfected cells
# T1 sequence (P37231 1-477 isoform P37231-2): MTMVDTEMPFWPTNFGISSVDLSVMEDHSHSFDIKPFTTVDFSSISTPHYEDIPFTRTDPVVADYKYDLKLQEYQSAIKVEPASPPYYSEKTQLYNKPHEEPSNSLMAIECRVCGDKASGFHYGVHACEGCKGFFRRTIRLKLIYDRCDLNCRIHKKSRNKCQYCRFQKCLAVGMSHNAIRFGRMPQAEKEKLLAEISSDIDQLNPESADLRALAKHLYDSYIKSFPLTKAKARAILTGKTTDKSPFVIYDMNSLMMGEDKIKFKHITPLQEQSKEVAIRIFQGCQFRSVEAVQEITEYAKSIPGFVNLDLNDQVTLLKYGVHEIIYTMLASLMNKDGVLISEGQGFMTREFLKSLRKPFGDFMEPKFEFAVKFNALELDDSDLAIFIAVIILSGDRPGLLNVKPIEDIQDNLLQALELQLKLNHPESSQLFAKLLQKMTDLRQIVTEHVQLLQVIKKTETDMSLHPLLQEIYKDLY
# T1 sequence (P19793 1-462 partner): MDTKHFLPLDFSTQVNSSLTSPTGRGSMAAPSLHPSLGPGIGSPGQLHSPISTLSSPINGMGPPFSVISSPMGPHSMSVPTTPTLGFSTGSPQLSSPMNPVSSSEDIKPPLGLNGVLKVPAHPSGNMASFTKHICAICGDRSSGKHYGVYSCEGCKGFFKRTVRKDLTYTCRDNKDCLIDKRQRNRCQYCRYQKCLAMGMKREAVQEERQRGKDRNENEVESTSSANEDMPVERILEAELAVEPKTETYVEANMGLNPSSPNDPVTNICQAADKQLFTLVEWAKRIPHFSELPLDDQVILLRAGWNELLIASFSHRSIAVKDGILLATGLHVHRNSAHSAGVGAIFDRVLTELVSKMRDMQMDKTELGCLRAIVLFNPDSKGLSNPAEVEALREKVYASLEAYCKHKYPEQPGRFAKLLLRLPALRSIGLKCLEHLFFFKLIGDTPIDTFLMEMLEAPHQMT
# Outline: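 CHO-K1 cells stably carrying hPPARγ/RXRα and a 4ERPP luciferase reporter, dosed with test compound for 1 day at 37 °C in Ham's F12 with 0.1% fatty acid-free BSA. Luciferase read by luminescence; activity given as % of 1 μM control compound X (100%) versus untreated (0%).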
# human AT1 receptor = molecular target: T2, human AT1 receptor (Homo sapiens, UniProt P30556); experiment: AT1 receptor antagonistic activity: [125I]-angiotensin II binding assay on human AT1 receptor-expressing CHO-K1 cellular membrane fraction; conditions: 22.5 pM [125I]-angiotensin II, 1 hr room temperature
# T2 construct: expressed in transfected cells; membrane fraction
# T2 sequence (P30556 1-359): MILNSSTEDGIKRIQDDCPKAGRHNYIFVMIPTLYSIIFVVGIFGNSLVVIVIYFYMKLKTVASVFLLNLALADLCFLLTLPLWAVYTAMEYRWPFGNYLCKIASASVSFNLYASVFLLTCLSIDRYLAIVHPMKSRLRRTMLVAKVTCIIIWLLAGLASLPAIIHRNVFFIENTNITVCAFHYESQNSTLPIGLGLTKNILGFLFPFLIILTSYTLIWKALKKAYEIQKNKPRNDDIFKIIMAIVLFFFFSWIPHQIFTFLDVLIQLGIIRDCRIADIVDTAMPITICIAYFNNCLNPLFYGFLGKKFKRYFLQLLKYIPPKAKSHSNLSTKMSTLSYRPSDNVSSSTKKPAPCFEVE
# Outline: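 Competition binding used radiolabelled angiotensin II on stably transfected CHO-K1 membrane fractions in Tris pH 7.4/MgCl2 buffer, optionally containing 0.3 mg/mL fatty acid-free BSA, 1 hr at room temperature. Filtration onto GF/C separated bound tracer, and nonspecific binding was measured with candesartan.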
activation at 1 µM (human PPARγ),IC50 (human AT1 receptor),Compound,Maximum MBP reduction (mmHg) (Male SHRs)
–,–,"(−)-6-{[3-fluoro-2′-(5-oxo-4,5-dihydro-1,2,4-oxadiazol-3-yl)biphenyl-4-yl]methyl}-4-[trans-4-(2-hydroxy-1,2-dimethylpropoxy)cyclohexyl]-7-propyl[1,2,4]triazolo[1,5-a]pyrimidin-5(4H)-one potassium salt (retention time: long) [Example 459]",64 mmHg
–,–,"CCCc1c(Cc2ccc(-c3ccccc3-c3noc(=O)[nH]3)cc2)c(=O)n([C@H]2CC[C@H](OCC(C)(C)O)CC2)c2ccnn12 [Example 415, 4-[trans-4-(2-hydroxy-2-methylpropoxy)cyclohexyl]-6-{[2′-(5-oxo-4,5-dihydro-1,2,4-oxadiazol-3-yl)biphenyl-4-yl]methyl}-7-propylpyrazolo[1,5-a]pyrimidin-5(4H)-one potassium salt]",63 mmHg
19%,1.7 nM,"CCCc1c(Cc2ccc(-c3ccccc3-c3noc(=O)[nH]3)cc2F)c(=O)n([C@H]2CC[C@H](OCC(C)(C)O)CC2)c2nc(C)nn12 [Example 360, 6-{[3-fluoro-2′-(5-oxo-4,5-dihydro-1,2,4-oxadiazol-3-yl)biphenyl-4-yl]methyl}-4-[trans-4-(2-hydroxy-2-methylpropoxy)cyclohexyl]-2-methyl-7-propyl[1,2,4]triazolo[1,5-a]pyrimidin-5(4H)-one]",–
26%,2.7 nM,"CCCc1c(Cc2ccc(-c3ccccc3-c3noc(=O)[nH]3)cc2)c(=O)n([C@H]2CC[C@]3(CC2)CC(C)=NO3)c2ncnn12 [Example 204, 4-[(5R,8R)-3-methyl-1-oxa-2-azaspiro[4.5]dec-2-en-8-yl]-6-{[2′-(5-oxo-4,5-dihydro-1,2,4-oxadiazol-3-yl)biphenyl-4-yl]methyl}-7-propyl[1,2,4]triazolo[1,5-a]pyrimidin-5(4H)-one]",–
